ChEMBL document CHEMBL3046173, “Synthesis, structure, anticancer, and antioxidant activity of para-xylyl linked bis-benzimidazolium salts and respective dinuclear Ag(I) N-heterocyclic carbene complexes (Part-II)” (Med Chem Res, 2013)

How the values were obtained:
[1] = test system: Radical scavenging activity; experiment: Antioxidant activity assessed as inhibition of DPPH free radicals at 400 uM after 30 min by microplate reader analysis relative to control; format: functional
HCT-116 = experiment: Cytotoxicity against Homo sapiens (human) HCT116 cells assessed as growth inhibition after 48 hr by MTT assay; format: functional, cell-based; details: for IC50: HCT-116, 48 h

c1ccc2[nH]cnc2c1 [BENZIMIDAZOLE] was tested, and the inhibition [1] was 21%, the “growth inhibition (GI)” value (HCT-116) was “Dose-dependent effect” and the IC50 (HCT-116) was greater than 200 µM.

For CCCCCCCCCn1c[n+](Cc2ccc(C[n+]3cn(CCCCCCCCC)c4ccccc43)cc2)c2ccccc21, the inhibition [1] was 14.8%, the “growth inhibition (GI)” value (HCT-116) was “Dose-dependent effect” and the IC50 (HCT-116) was 2.8 µM.

O=c1[nH]cc(F)c(=O)[nH]1 [FLUOROURACIL] was tested, and the “growth inhibition (GI)” value (HCT-116) was “Dose-dependent effect” and the IC50 (HCT-116) was 19.2 µM.

With CCCCCCCCCCn1c[n+](Cc2ccc(C[n+]3cn(CCCCCCCCCC)c4ccccc43)cc2)c2ccccc21 the inhibition [1] was 13.7%, the “growth inhibition (GI)” value (HCT-116) was “Dose-dependent effect” and the IC50 (HCT-116) was 3.3 µM.

For CCCCCCCCn1c[n+](Cc2ccc(C[n+]3cn(CCCCCCCC)c4ccccc43)cc2)c2ccccc21, the inhibition [1] was 17.9%, the “growth inhibition (GI)” value (HCT-116) was “Dose-dependent effect” and the IC50 (HCT-116) was 0.9 µM.

Work on O=C(O)c1cc(O)c(O)c(O)c1 yielded an inhibition [1] of 77.7%.
